In brackets after ≈: the same amount, converted by molar mass. Like-named read-outs stand apart in the source and are kept apart here.
Columns and labels:
S. aureus PBP2 = target: T1, S. aureus PBP2 (Staphylococcus aureus, UniProt Q9R744); test: IC50 for transglycosylase inhibition, S. aureus PBP2, [14C]-GlcNAc-labeled lipid II analogue; type: biochemical
T1 construct: made in house
T1 sequence (Q9R744 1-727): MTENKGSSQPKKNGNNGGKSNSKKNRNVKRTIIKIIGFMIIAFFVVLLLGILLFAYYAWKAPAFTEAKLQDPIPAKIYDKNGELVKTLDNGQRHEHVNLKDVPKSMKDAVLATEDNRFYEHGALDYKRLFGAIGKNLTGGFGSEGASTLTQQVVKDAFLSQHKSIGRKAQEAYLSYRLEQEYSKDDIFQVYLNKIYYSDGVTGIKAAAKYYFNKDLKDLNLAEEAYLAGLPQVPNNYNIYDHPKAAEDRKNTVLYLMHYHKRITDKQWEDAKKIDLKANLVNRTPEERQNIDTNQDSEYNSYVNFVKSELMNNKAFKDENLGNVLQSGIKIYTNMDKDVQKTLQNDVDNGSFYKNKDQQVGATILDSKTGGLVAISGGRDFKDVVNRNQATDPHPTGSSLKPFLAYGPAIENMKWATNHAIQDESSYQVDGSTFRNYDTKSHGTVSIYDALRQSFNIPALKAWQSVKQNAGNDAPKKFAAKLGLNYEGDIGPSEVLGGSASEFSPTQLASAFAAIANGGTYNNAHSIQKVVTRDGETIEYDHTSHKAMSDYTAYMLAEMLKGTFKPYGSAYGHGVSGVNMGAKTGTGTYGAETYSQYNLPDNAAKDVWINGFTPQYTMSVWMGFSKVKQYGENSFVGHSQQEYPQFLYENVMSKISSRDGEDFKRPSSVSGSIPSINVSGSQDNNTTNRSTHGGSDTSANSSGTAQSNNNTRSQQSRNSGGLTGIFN
Protocol: S. aureus PBP2 was over-expressed and purified as described^4,5. The IC50s for moenomycin and neryl compounds were carried out using the following reaction condition: (0-50 μM) and PBP2 (final concentration 30 nM) were incubated in Eppendorf tubes containing 9 μL of buffer [(50 mM HEPES buffer, 50 mM MOPS, 50 mM MES, 50 mM AcOH) at pH 5.0, 10 mM CaCl2, 20% DMSO (v/v), 250 unit/mL penicillin G] for 30 min. The reaction was initiated by adding 4 μM [^14C]-GlcNAc-labeled lipid II analogue^4 (specific activity=101 cpm/pmol) and quenched after 80 min with 10 μL of ice-cold 10 mM Tris (pH=8.0) containing 0.2% Triton X-100. The reaction mixture was immediately spotted on cellulose chromatography paper (3MM Whatmann). Products and starting material were separated using chromatography (isobutryic acid:1 N NH4OH=5:3) and quantitated by scintillation counting. The data were fit using Prism, as described^3,4.

[1] = tested on: S. aureus, bacterial strain 29213; test: MIC, standard microdilution assay, S. aureus; type: cell-based; conditions: Staphylococcus aureus, no visible growth after 35° C. for 22 h, read-out: MIC (μg/ml) S. aureus
Text: (§1) MIC values (μg/mL) were obtained using a standard microdilution assay.

[2] = tested on: E. faecalis, bacterial strain 29212; test: MIC, standard microdilution assay, E. faecalis; type: cell-based; conditions: Enterococcus faecalis, no visible growth after 35° C. for 22 h, read-out: MIC (μg/ml) E. faecalis
Text: as §1

[3] = cited from earlier work
bacteria = conditions: on a molar basis, cited from earlier work
E. faecalis PBP2a = target: T2, E. faecalis PBP2a (Enterococcus faecalis, UniProt Q837Z4); test: IC50 for transglycosylase inhibition, E. faecalis PBP2a, [14C]-GlcNAc-labeled lipid II analogue; type: biochemical
T2 sequence (Q837Z4 1-728): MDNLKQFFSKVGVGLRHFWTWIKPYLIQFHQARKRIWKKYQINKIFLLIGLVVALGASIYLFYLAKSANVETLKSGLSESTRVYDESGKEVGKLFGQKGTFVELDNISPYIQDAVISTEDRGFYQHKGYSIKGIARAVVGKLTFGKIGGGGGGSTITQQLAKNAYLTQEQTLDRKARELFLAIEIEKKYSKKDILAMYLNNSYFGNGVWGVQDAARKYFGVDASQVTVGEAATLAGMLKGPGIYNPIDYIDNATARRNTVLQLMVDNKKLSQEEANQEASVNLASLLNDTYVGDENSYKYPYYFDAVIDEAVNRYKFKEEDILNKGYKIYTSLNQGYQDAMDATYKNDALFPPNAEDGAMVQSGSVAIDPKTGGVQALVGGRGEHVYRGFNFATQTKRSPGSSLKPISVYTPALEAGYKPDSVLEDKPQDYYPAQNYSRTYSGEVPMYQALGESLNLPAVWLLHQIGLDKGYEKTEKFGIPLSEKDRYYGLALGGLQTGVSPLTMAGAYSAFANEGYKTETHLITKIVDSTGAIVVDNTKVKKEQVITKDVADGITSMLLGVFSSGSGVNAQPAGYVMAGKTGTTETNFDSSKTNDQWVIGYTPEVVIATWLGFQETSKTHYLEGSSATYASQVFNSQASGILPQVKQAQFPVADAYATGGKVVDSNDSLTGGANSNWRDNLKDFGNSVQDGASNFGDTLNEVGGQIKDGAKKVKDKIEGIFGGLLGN
Text: The pbp2a gene was PCR-amplified from E. faecalis (CL4877) purified genomic DNA using the following primer pair: 5′-[…] AATCTTAAACAATTTTTT-3′ (SEQ ID NO: 1) and 5′[…]-3′ (SEQ ID NO: 2). The first primer introduced a NdeI restriction site (underlined), and the second primer introduced a XhoI site into the PCR product. The PCR product was subcloned into pET42 (Novagen) for expression in E. coli BL21(DE3) (Novagen) as a C-terminal His8 fusion. PBP2a was expressed after induction of a log phase culture grown at 37° C. with 1 mM IPTG and grown at 15° C. for an additional 20 h. The cells were harvested by centrifugation, and the cell pellets were resuspended in buffer A (20 mM Tris-HCl, 150 mM NaCl, pH 7.4) supplemented with 360 kU of rLysozyme (Novagen). The cells were lysed using a French pressure cell at 16,000 psi in buffer A. Freely soluble proteins were decanted and the pellet resuspended in buffer A containing 0.5% Sarkosyl to release membrane-anchored PBP2a. […] Fractions were analyzed by 12% SDS-PAGE, pooled and concentrated using a Amicon Ultra Centrifuga Filter Device (50K MW cutoff). […]
IC50 Values for PBP2a. […] Products and starting material were separated using chromatography (isobutryic acid:1 N NH4OH=5:3) and quantitated by scintillation counting. […]

SMILES | IC50 (S. aureus PBP2) [nM] | MIC [1] [µg/mL] | MIC [2] [µg/mL] | absorption upon oral administration ([3]; oral) | pharmacokinetic properties ([3]; related to the lipid side chain) | potency relative to vancomycin (bacteria; listed as Moenomycin A) | potency relative to vancomycin (bacteria; listed as moenomycin A) | IC50 (E. faecalis PBP2a) [nM] | IC50 (E. faecalis PBP2a; PBP2a 52 nM, pH 7.5, 4 μM lipid II analogue, read-out: IC50 (μg/ml) E. faecalis PBP2a (converted)) [nM]
C=C(C/C=C(\C)CCC=C(C)C)CCC(C)(C)/C=C/CC/C(C)=C\CO[C@H](COP(=O)(O)O[C@H]1OC(C(N)=O)[C@@](C)(O)[C@H](OC(N)=O)C1O[C@@H]1OC(CO[C@@H]2OC(CO)[C@@H](O)[C@H](O)C2O)[C@@H](O[C@@H]2OC(C)[C@@H](O[C@@H]3OC(C(=O)NC4=C(O)CCC4=O)[C@H](O)[C@H](O)C3O)[C@H](O)C2NC(C)=O)[C@H](O)C1NC(C)=O)C(=O)O (stereo partly drawn) [compound 1, Moenomycin A] | 22.1 | 0.016 (≈ 0.0101 µM) | 0.063 (≈ 0.0398 µM) | relatively poor | poor pharmacokinetic properties | a thousand times more potent than the antibiotic vancomycin | a thousand times more potent than vancomycin | 26.5 | –
CC(=O)NC1[C@H](O[C@@H]2C(CO[C@@H]3OC(CO)[C@@H](O)[C@H](O)C3O)O[C@@H](OC3[C@@H](OP(=O)(O)OC[C@@H](OC/C=C(/C)CCC=C(C)C)C(=O)O)OC(C(N)=O)[C@@](C)(O)[C@@H]3OC(N)=O)C(NC(C)=O)[C@H]2O)OC(C)[C@@H](O[C@@H]2OC(C(=O)NC3=C(O)CCC3=O)[C@H](O)[C@H](O)C2O)[C@@H]1O (stereo partly drawn) [compound 15] | 41.4 | > 250 | > 250 | – | – | – | – | – | 16
